A short description of data set [1]: Solubility of the hit compound. The format is physicochemical. How it is done:
Screen Format 384-well black plates (Greiner, 784290)
Concentration(s) tested 2 mM compound with 2% DMSO (final concentration), 40 nM FITC-labeled H3K9me3 peptide, 8 μM tandem
Tudor domain of UHRF1 protein
Plate controls Background: FITC-labeled peptide only; negative control: FITC-labeled peptide and protein; positive control: FITC-labeled peptide and protein plus unlabeled H3K9me3 peptide
Reagent/ compound dispensing system Agilent Bravo robot
Detection instrument and software Synergy 4 microplate reader (BioTek), GraphPad […]
Assay validation/QC Z’ factor = 0.8
Correction factors Background value
Normalization All the digital values of fluorescence polarization signal subtract the background signal value.
Additional comments High concentrations (>2.5%) of DMSO might affect peptide binding and signal-to-noise ratios
Post-HTS analysis Hit criteria The signal of negative control was set as 100%. When the signal of sample was less than 50% of negative control, it was taken as hit.
Additional assay(s) The hits were further confirmed by dose response analysis with 1 mM as the highest concentration of the hits and 11 serial dilutions by 2 times, and then by isothermal titration calorimetry assay.
Confirmation of hit purity and structure The compound was repurchased (Specs, ID: AG- […]

The subject of data set [2] is UHRF1_TTD aromatic cage residues mutated to alanine. The data set can be described thus: ITC binding to UHRF1 TTD aromatic cage mutants. The note with it: Supplementary Fig. 9e. The source says:
(§1) The coding DNA fragments of following Tudor domains were cloned into pET28-MHL vector: SMN (aa 82–147), UHRF1 (aa 126–285), SMNDC1 (aa 53–130), TDRD3 (aa 554–611), SND1 (aa 650–910), TDRD2 (aa 327–420), FXR1 (aa 2–132), PHF1 (aa 28–87), SGF29 (aa 115–293), JMJD2A (aa 897–1101), 53BP1 (aa 1483–1606), SETDB1 (aa 190–410), LBR (aa 1–67), ZGPAT (aa 120–271). The coding regions of chromodomain of CBX7 (aa 8–62), PWWP domain of DNMT3A (aa 275–417), WD40 repeats of WDR5 (aa 24–334) and CW domain of ZCWPW2 (aa 21–78) were also subcloned into pET28-MHL vector to generate N-terminally His-tagged fusion protein. The MBT repeats of L3MBTL1 (aa 200–522) and L3MBTL2 (aa 170–625) were subcloned into pET28GST-LIC vector to generate N-terminally GST-His-tagged fusion protein. All the plasmids were generated by ligase independent cloning (Vazyme Biotech, C112 or ABclonal Technology, RK21020). […] The molecular weight of all protein samples was measured by mass spectrometry.
(§2) For the ITC measurement, the concentrated proteins were diluted into 20 mM Tris-HCl, pH 7.5, 150 mM NaCl (ITC buffer); the lyophilized compounds were dissolved in the same buffer, and the pH value was adjusted by adding 2 M NaOH or 2 M HCl. […] Compound concentrations were calculated from the mass and the volume of the solvent. […]

The next data set deals with T1, TDRD2 (Homo sapiens, UniProt Q9Y2W6).
T1 construct: TDRD2 (aa 327–420); His (N, cleaved yes); made in house; host or cells: E. coli BL21 (DE3) Codon plus RIL
The data set can be described thus: ITC binding to TDRD2. The note with it: Fig. 1c.
From the text: as §1, §2

The next data set deals with T2, FXR1 (Homo sapiens, UniProt P51114).
T2 construct: FXR1 (aa 2–132); His (N, cleaved yes); made in house; host or cells: E. coli BL21 (DE3) Codon plus RIL
The data set can be described thus: ITC binding to FXR1.
From the text: as §1, §2

Another data set addresses T3, SMN_N132D (Homo sapiens, UniProt Q16637, N132D).
T3 construct: cloned into pET28-MHL vector: SMN (aa 82–147); His (N, cleaved yes); made in house; host or cells: E. coli BL21 (DE3) Codon plus RIL
The data set can be described thus: ITC binding to SMN Tudor mutant N132D. The note with it: Fig. 3d.
From the text: as §1, §2

In a further data set the target is TDRD3 (Homo sapiens, UniProt Q9H7E2). Description: ITC binding to TDRD3. The conditions noted are these: Supplementary Figs. 2 and 11b (VP-ITC); read-out: Kd, ITC binding curve, TDRD3. On the set-up: TDRD3 (aa 554–611); His (N, cleaved yes); made in house; host or cells: E. coli BL21 (DE3) Codon plus RIL.
From the text: as §1, §2

For a further data set, the target named is T4, PHF1 (Homo sapiens, UniProt O43189).
T4 construct: PHF1 (aa 28–87); His (N, cleaved yes); made in house; host or cells: E. coli BL21 (DE3) Codon plus RIL
Description: ITC binding to PHF1. The conditions noted are these: Fig. 1c.
From the text: as §1, §2

Structures are written as SMILES.

T2 sequence (P51114 2-132): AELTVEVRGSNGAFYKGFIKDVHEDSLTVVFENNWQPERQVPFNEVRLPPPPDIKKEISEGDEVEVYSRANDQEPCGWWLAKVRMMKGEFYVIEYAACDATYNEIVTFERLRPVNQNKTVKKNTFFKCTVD
T4 sequence (O43189 28-87): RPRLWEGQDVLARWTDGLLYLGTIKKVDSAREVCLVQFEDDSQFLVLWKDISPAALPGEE
T1 sequence (Q9Y2W6 327-420): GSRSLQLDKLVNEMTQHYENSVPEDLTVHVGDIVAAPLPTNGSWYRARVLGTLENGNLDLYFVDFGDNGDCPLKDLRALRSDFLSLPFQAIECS
TDRD3, sequence (Q9H7E2 554-611): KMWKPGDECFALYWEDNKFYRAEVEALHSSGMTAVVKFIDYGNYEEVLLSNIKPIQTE
T3 sequence (Q16637 82-147 N132D): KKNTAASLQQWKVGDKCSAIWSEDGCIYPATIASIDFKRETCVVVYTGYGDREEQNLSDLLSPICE

In the case of `Cn1c2c(c(=N)c3c1CCC3)CCC2` [Compound 1, 4-methyl-2,3,4,5,6,7-hexahydrodicyclopenta[b,e]pyridin-8(1H)-imine], in data set [1] (DMSO), the “concentration dissolved in DMSO” value was 100000 µM. For the same molecule, the “solubility in buffer at high concentration” value in data set [1] (buffer) was “but not in buffer”. In addition, in data set [2], the “binding affinity to UHRF1_TTD aromatic cage alanine mutants” value is given as “not affected significantly”. Also, the equilibrium dissociation constant (Kd) – broadly, the concentration at which binding is half-saturated – at TDRD2 is more than 244 µM; on FXR1 (ITC, Fig. 1c) it was more than 100 µM; at SMN_N132D, 3.3 ± 0.1 µM; on TDRD3 it was 11 ± 1 µM; on PHF1, more than 244 µM. On FXR1 (Supplementary Fig. 2e), the “ITC binding curve, FXR1 (in words)” value is recorded as “Weak binding”.

The values above are taken from article PMC9481570, “A small molecule antagonist of SMN disrupts the interaction between SMN and RNAP II” (Nature Communications, 2022).
